Experimental data published in patent publication US8563589B2, “Methods of treating neuropathic pain with benzimidazole derivative agonists of PPARgamma” (priority 2009, dated 2013).

How the values were obtained:
neurogenic pain model = conditions: reported in WO2006085686; cited from earlier work
type 2 diabetes = conditions: Phase II; quoted from Meinke et al., Annual Reports in Medicinal Chemistry (2006); cited from earlier work
[1] = tested on: Bennett neuropathic pain model; assay: Bennett (chronic constriction injury) neuropathic pain model, cold plate / cold allodynia test; format: in vivo, rat; conditions: for latency time to removal of the affected paw from a cold plate, difference from vehicle control: dosed orally at 100 mg/kg, measured one hour later, cold allodynia test, ANOVA p<0.05 (FIG. 1)
Protocol: FIG. 1—Efficacy of PPARγ agonists Muraglitizar and Tesaglitizar in Bennett animal model for neuropathic pain. PPAR agonist compounds and positive control carbamazepine were dosed orally at 100 mg/kg, and pain behavior was measured one hour later with the cold allodynia test, as the latency time to removal of the affected paw from a cold plate. Statistical analysis of raw data was performed by analysis of variance (ANOVA), with significance threshold set at p<0.05. Analgesic activity was determined as a statistically significant increase in latency time to paw withdrawal in treated animals as compared to vehicle-treated animals. Comparisons for statistically significant differences in latency times were made between PPAR agonist compound-treated animals and vehicle controls, between carbamazepine-treated animals and vehicle controls, and between PPAR agonist compound-treated animals and carbamazepine-treated animals from the same experiment. All statistically significant differences between compared groups are indicated by the brackets, with *=p<0.05, and **=p<0.001.
FIG. 3—Effect of carbamazepine (+ control) and 3-(2,4-dichlorobenzyl)-2-methyl-N-(pentylsulfonyl)-3H-benzimidazole-5-carboxamide (“Atx” in Figure) on the latency to lift paw from the cold plate 60 min following compound injection, in rats with the Bennett model of neuropathic pain. Data represent mean±SEM. Statistical analysis of data as for FIG. 1; *=p<0.05.
These models are based on three surgical procedures: (i) the spinal nerve ligation (SNL) [Kim, S, and J. Chung, An experimental model for peripheral neuropathy produced by segmental spinal nerve ligation in the rat. Pain, 1992. 50: p. 355-363]; (ii) the partial sciatic nerve lesion (Seltzer) [Seltzer, Z., R. Dubner, and Y. Shir, A novel behavioral model of neuropathic pain disorders produced in rats by partial sciatic nerve injury. Pain, 1990. 43: p. 205-218]; (iii) and the chronic constriction injury [Bennett, G. and Y. Xie, A peripheral mononeuropathy in rat that produces disorders of pain sensation like those seen in man. Pain, 1988. 33: p. 87-107]. The Bennett model was used, as described below.
Young adult, male Sprague Dawley rats (200-250 g) from Harlan were used. Upon receipt, animals were assigned unique identification numbers (tail marked) and housed 2-3 per cage in suspended polycarbonate rat cages with filter paper covering mesh shelf. Rats were acclimated for up to 7 days prior to surgery. […]
The apparatus consists of a cold plate (Ugo Basile Hot/Cold Plate) measuring 25 (w)×37 (d)×16 (h) cm with a 10 cm thick aluminum circular plate. […] Baseline responses were measured on the day prior to drug administration. Each animal was tested by placing it on the cold plate (set to 4 C) and the latency of paw withdrawal was recorded. […]

O=C(Nc1ccccc1)c1cc([N+](=O)[O-])ccc1Cl [GW9662, 2-chloro-5-nitro-N-phenylbenzamide]
activity in a neurogenic pain model (neurogenic pain model): demonstrates activity in a neurogenic pain model

CCCCCS(=O)(=O)NC(=O)c1ccc2nc(C)n(Cc3ccc(Cl)cc3Cl)c2c1 [Atx, 3-(2,4-dichlorobenzyl)-2-methyl-N-(pentylsulfonyl)-3H-benzimidazole-5-carboxamide]
advantage for type 2 diabetes in clinical trials (type 2 diabetes): no advantage [for type 2 diabetes] was demonstrated in clinical trials | latency to lift paw from the cold plate, analgesic activity compared to carbamazepine (+ control) ([1]; 60 min following compound injection, rats with the Bennett model (FIG. 3)): not significantly different from carbamazepine | latency to lift paw from the cold plate, analgesic activity compared to vehicle ([1]; 60 min following compound injection, rats with the Bennett model, p<0.05 (FIG. 3)): analgesic activity which is significantly greater than vehicle alone

COc1ccc(OC(=O)N(CC(=O)O)Cc2ccc(OCCc3nc(-c4ccccc4)oc3C)cc2)cc1 [Muraglitazar]
latency time to removal of the affected paw from a cold plate, difference from vehicle control [1]: neither of Muraglitazar or Tesaglitazar showed any statistically significant difference from a vehicle control

CCO[C@@H](Cc1ccc(OCCc2ccc(OS(C)(=O)=O)cc2)cc1)C(=O)O [Tesaglitazar]
latency time to removal of the affected paw from a cold plate, difference from vehicle control [1]: neither of Muraglitazar or Tesaglitazar showed any statistically significant difference from a vehicle control
